Laboratory results published in paper PMC4754833, “Rilpivirine analogs potently inhibit drug-resistant HIV-1 mutants” (Retrovirology, 2016).

Legend:
[1] = system: HIV-1 RT mutant Y181C; design: method as in PMID 23217210; conditions: previous study; cited from earlier work
[2] = system: HIV-1 RT mutant P236L; experiment: single round infection assay, P236L; format: cell-based; conditions: for IC50: Human immunodeficiency virus 1; for fold-change of IC50 of the mutant relative to WT: P236L vs WT
Method: (§1) The human osteosarcoma cell line, HOS, was obtained from Dr. Richard Schwartz (Michigan State University, East Lansing, MI) and grown in Dulbecco’s modified Eagle’s medium (Invitrogen, Carlsbad, CA) supplemented with 5 % (v/v) fetal bovine serum, 5 % newborn calf serum, and penicillin (50 units/ml) plus streptomycin (50 µg/ml; Quality Biological, Gaithersburg, MD). Virion production and single-round infectivity assays were used to determine antiviral activity (IC50 values) of the compounds as previously described.
(§2) pNLNgoMIVR-ΔEnv.LUC has been described previously. The RT open reading frame was removed from pNLNgoMIVR-ΔEnv.LUC (digestion with SpeI and SalI) and inserted between the SpeI and SalI sites of pBluescript II KS+. Using that construct as the wild-type template, we prepared the following HIV-1 RT mutants using the QuikChange II XL (Stratagene, La Jolla, CA) site-directed mutagenesis protocol kit: L100I, K103N, Y181C, Y188L, H221Y, K103N/Y181C, G190A, G190S, M230L, P236L, L100I/K103N, K103N/P225H, V106A/G190A/F227L, V106A, L234I, V106A/F227L, V106A/L234I, V106A/F227L/L234I, E40K, D67E, K101E, V111A, E138K, M184I, M184V, K101E/M184I, K101E/M184V, E138K/M184I, E138K/M184V, K101P, Y181I, and K101P/V179I. The following sense oligonucleotides were used with matching cognate antisense oligonucleotides (not shown) (Integrated DNA Technologies, Coralville, IA) in the mutagenesis: L100I, 5′-[…]-3′; L100I 2-103, 5′-[…]-3′; K103N, 5′-[…]-3′; Y181C, 5′-[…]-3′; Y188L, 5′-[…]-3′; H221Y, 5′-[…]-3′; G190A, 5′-[…]-3′; G190S, 5′-[…]-3′; P225H, 5′-[…]-3′; F227, 5′-[…]-3′; M230L, 5′-[…]-3′; P236L, 5′-[…]-3′; V106A, 5′-[…]-3′; L234I, 5′-[…]-3′; E40K, 5′-[…]-3′; D67E, 5′-[…]-3′; K101E, 5′-[…]-3′; V111A, 5′-[…]-3′; E138K, 5′-[…]-3′; M184I, 5′-[…]-3′; M184V, 5′-[…]-3′; K101P, 5′-[…]-3′; Y181I, 5′-[…]-3′; K101P/V179I, 5′-[…]-3′. The double mutants K103N/Y181C, K103N/P225H, and L100I/K103N were made using the previously generated K103N mutant and the appropriate oligonucleotides to add the second mutation, Y181C, P225, and L100I respectively. The double mutants V106A/F227L and V106A/L234I were prepared using the previously generated V106A mutant and the appropriate oligonucleotides to add the second mutation, F227L and L234I, respectively. The double mutants K101E/M184I and K101E/M184V were constructed using the previously generated K101E mutant and the appropriate oligonucleotides to add the second mutation, M184I and M184V, respectively. The double mutants E138K/M184I and E138K/M184V were constructed using the previously generated E138K mutant and the appropriate oligonucleotides for the second mutation, M184I and M184V, respectively. The triple mutant V106A/F227L/L234I was made using the previously generated V106A/F227L double mutant and the appropriate oligonucleotides for the third mutation, L234I. The triple mutant V106A/G190A/F227L was constructed in a series of steps using the previously generated V106A mutant and the appropriate oligonucleotides for the second mutation, G190A, to generate the double mutant V106A/G190A, and then the triple mutant was made using double mutant V106A/G190A and oligonucleotides for the third mutation, F227L. The DNA sequence of each construct was verified by DNA sequence determination. The sequences encoding the mutant RTs were then subcloned into pNLNgoMIVR-ΔEnv.LUC (between the KpnI and SalI sites) to produce the mutant HIV-1 constructs. These DNA sequences were also checked independently by DNA sequence determination.
(§3) 10.1186/s12977-016-0244-2 The IC50 values (nM) of RPV and the RPV analogs were determined against the NNRTI resistant mutants were measured by using a single round infection assay, n = 4. The concentrations (nM) are measured by reductions in luciferase reporter activity followed by the standard deviations. […]

[3] = system: HIV-1 RT mutant D67E; experiment: single round infection assay, D67E; format: cell-based; conditions: for fold-change of IC50 of the mutant relative to WT: D67E vs WT; for IC50: ± SD, n=4
Method: as §1, §2, §3

[4] = system: HIV-1 RT mutant K101E/M184V; experiment: single round infection assay, K101E/M184V; format: cell-based; conditions: for fold-change of IC50 of the mutant relative to WT: K101E/M184V vs WT
Method: as §1, §2, §3

[5] = system: HIV-1 RT mutant E138K/M184I; experiment: single round infection assay, E138K/M184I; format: cell-based; conditions: for fold-change of IC50 of the mutant relative to WT: E138K/M184I vs WT; for IC50: ± SD, n=4
Method: as §1, §2, §3

[6] = system: HIV-1 RT mutant E40K; experiment: single round infection assay, E40K; format: cell-based; conditions: for fold-change of IC50 of the mutant relative to WT: E40K vs WT
Method: as §1, §2, §3

[7] = system: WT HIV-1; experiment: single round infection luciferase assay, WT HIV-1; format: cell-based; conditions: Human immunodeficiency virus 1
Method: as §1, §2, §3

[8] = system: HIV-1 RT mutant H221Y; design: method as in PMID 23217210; conditions: previous study; cited from earlier work
[9] = system: HIV-1 RT mutant V106A; experiment: single round infection assay, V106A; format: cell-based; conditions: for IC50: ± SD, n=4; for fold-change of IC50 of the mutant relative to WT: V106A vs WT
Method: as §1, §2, §3

[10] = system: HIV-1 RT mutant G190S; experiment: single round infection assay, G190S; format: cell-based; conditions: Human immunodeficiency virus 1
Method: as §1, §2, §3

[11] = system: HIV-1 RT mutant V106A/F227L/L234I; experiment: single round infection assay, V106A/F227L/L234I; format: cell-based; conditions: for IC50: ± SD, n=4; for fold-change of IC50 of the mutant relative to WT: V106A/F227L/L234I vs WT
Method: as §1, §2, §3

[12] = system: HIV-1 RT mutant V106A/G190A/F227L; experiment: single round infection assay, V106A/G190A/F227L; format: cell-based; conditions: for IC50: Human immunodeficiency virus 1; for fold-change of IC50 of the mutant relative to WT: V106A/G190A/F227L vs WT
Method: as §1, §2, §3

[13] = system: HIV-1 RT mutant V106A/F227L; experiment: single round infection assay, V106A/F227L; format: cell-based; conditions: for fold-change of IC50 of the mutant relative to WT: V106A/F227L vs WT; for IC50: ± SD, n=4
Method: as §1, §2, §3

[14] = system: HIV-1 RT mutant Y181I; experiment: single round infection assay, Y181I; format: cell-based; conditions: for IC50: Human immunodeficiency virus 1
Method: as §1, §2, §3

[15] = Human immunodeficiency virus 1, D67E
[16] = Human immunodeficiency virus 1, E138K/M184I
[17] = Human immunodeficiency virus 1, V106A (selected by DOR)
[18] = Human immunodeficiency virus 1, V106A/F227L/L234I (selected by DOR)
[19] = V106A/F227L/L234I (selected by DOR)
[20] = Human immunodeficiency virus 1, V106A/F227L (selected by DOR)

## Cc1cc(/C=C/C#N)cc(C)c1Nc1ncc(N)c(Nc2ccc(C#N)cc2)n1 [compound 9]
[1]
  IC50: < 7 nM
[2]
  IC50: 1.7 ± 0.7 nM
  fold-change of IC50 of the mutant relative to WT: < 2
[3]
  fold-change of IC50 of the mutant relative to WT: 3
[3]; D67E
  IC50: 4.2 ± 0.8 nM
[3]; [15]
  IC50: < 6 nM
[4]
  fold-change of IC50 of the mutant relative to WT: < 2
[5]
  fold-change of IC50 of the mutant relative to WT: 2
[5]; E138K/M184I
  IC50: 3 ± 0.3 nM
[5]; [16]
  IC50: < 6 nM
[6]
  fold-change of IC50 of the mutant relative to WT: 2
[7]
  IC50: 1.3 ± 0.2 nM
[8]
  IC50: < 7 nM
[9]; [17]
  IC50: < 5 nM
[9]; V106A (selected by DOR)
  IC50: 2.5 ± 1.2 nM
[9]
  fold-change of IC50 of the mutant relative to WT: < 2
[10]
  IC50: 0.6 ± 0.07 nM
[11]; [18]
  IC50: < 5 nM
[11]; [19]
  IC50: 6.4 ± 1.8 nM
[11]
  fold-change of IC50 of the mutant relative to WT: 5
[12]
  IC50: 4.6 ± 0.3 nM
  fold-change of IC50 of the mutant relative to WT: 4
[13]
  fold-change of IC50 of the mutant relative to WT: 17
[14]
  IC50: > 100 nM

## COc1ccc(Cn2cnc3c(Nc4ccc(C#N)cc4)nc(Nc4c(C)cc(/C=C/C#N)cc4C)nc32)cc1 [compound 12]
[1]
  IC50: < 7 nM
[2]
  IC50: 0.8 ± 0.2 nM
  fold-change of IC50 of the mutant relative to WT: < 2
[3]
  fold-change of IC50 of the mutant relative to WT: 43
[3]; [15]
  IC50: 29 ± 6.9 nM
[4]; Human immunodeficiency virus 1, K101E/M184V, ± SD, n=4
  IC50: 1.8 ± 0.21 nM
[4]
  fold-change of IC50 of the mutant relative to WT: 3
[5]
  fold-change of IC50 of the mutant relative to WT: 4
[5]; [16]
  IC50: 2.4 ± 0.5 nM
[6]
  fold-change of IC50 of the mutant relative to WT: < 2
[6]; Human immunodeficiency virus 1, E40K, ± SD, n=4
  IC50: 1 ± 0.04 nM
[7]
  IC50: 0.67 ± 0.06 nM
[8]
  IC50: < 7 nM
[9]
  fold-change of IC50 of the mutant relative to WT: < 2
[10]
  IC50: 0.37 ± 0.02 nM
[11]
  fold-change of IC50 of the mutant relative to WT: < 2
[12]
  IC50: 5.9 ± 0.14 nM
  fold-change of IC50 of the mutant relative to WT: 9
[13]; [20]
  IC50: < 5 nM
[13]; V106A/F227L (selected by DOR)
  IC50: 7.6 ± 0.5 nM
[13]
  fold-change of IC50 of the mutant relative to WT: 11
[14]
  IC50: > 100 nM

## CC(=O)c1ccc(Nc2nc(Nc3c(C)cc(/C=C/C#N)cc3C)nc3[nH]cnc23)cc1 [compound 14]
[1]
  IC50: < 7 nM
[2]
  IC50: 0.15 ± 0.05 nM
[3]
  fold-change of IC50 of the mutant relative to WT: 4
[3]; D67E
  IC50: 1.7 ± 0.21 nM
[3]; [15]
  IC50: < 2.5 nM
[4]
  fold-change of IC50 of the mutant relative to WT: < 2
[5]
  fold-change of IC50 of the mutant relative to WT: 3
[6]
  fold-change of IC50 of the mutant relative to WT: < 2
[7]
  IC50: 0.41 ± 0.08 nM
[8]
  IC50: < 7 nM
[9]; [17]
  IC50: < 5 nM
[9]; V106A (selected by DOR)
  IC50: 4.3 ± 0.5 nM
[9]
  fold-change of IC50 of the mutant relative to WT: 10
[10]
  IC50: 0.35 ± 0.05 nM
[11]; [18]
  IC50: < 5 nM
[11]; [19]
  IC50: 2.7 ± 0.64 nM
[11]
  fold-change of IC50 of the mutant relative to WT: 7
[12]
  IC50: 0.9 ± 0.18 nM
  fold-change of IC50 of the mutant relative to WT: 2
[13]; [20]
  IC50: < 5 nM
[13]; V106A/F227L (selected by DOR)
  IC50: 4.9 ± 1.3 nM
[13]
  fold-change of IC50 of the mutant relative to WT: 12
[14]
  IC50: > 100 nM

## COc1ccc(Nc2nc(Nc3c(C)cc(/C=C/C#N)cc3C)nc3[nH]cnc23)cc1 [compound 16]
[1]
  IC50: < 7 nM
[2]
  IC50: 0.2 nM
  fold-change of IC50 of the mutant relative to WT: < 2
[3]
  fold-change of IC50 of the mutant relative to WT: 16
[3]; D67E
  IC50: 2.7 ± 0.8 nM
[3]; [15]
  IC50: < 2.5 nM
[4]
  fold-change of IC50 of the mutant relative to WT: 2
[5]
  fold-change of IC50 of the mutant relative to WT: 5
[6]
  fold-change of IC50 of the mutant relative to WT: < 2
[7]
  IC50: 0.17 ± 0.01 nM
[8]
  IC50: < 7 nM
[9]
  fold-change of IC50 of the mutant relative to WT: 3
[10]
  IC50: 0.17 ± 0.05 nM
[11]; [18]
  IC50: < 5 nM
[11]; [19]
  IC50: 3 ± 0.8 nM
[11]
  fold-change of IC50 of the mutant relative to WT: 18
[12]
  IC50: 1.7 ± 0.2 nM
  fold-change of IC50 of the mutant relative to WT: 10
[13]
  fold-change of IC50 of the mutant relative to WT: 4
[14]
  IC50: 63.2 nM
[14]; Y181I vs WT
  fold-change of IC50 of the mutant relative to WT: 372
